Data as given in patent US8278437B2, “Hydroxypropyl-sulfobutyl-beta-cyclodextrin, the preparation method, the analytical method, and the pharmacutical application thereof” (priority 2005, dated 2012).
Values after ≈ are worked out from the molar mass of the structure shown. Values joined by “and” are separate entries in the source; they are usually repeats but may differ in a detail not shown here. Identical values can stand only once. Counter-ions that a name gives are not always drawn. Like-named read-outs stand apart in the source and are kept apart here.

Legend:
red blood cells = test: Hemolytic test; assay type: cell-based; details: 5% rabbit red blood cell suspension, 37° C., 30 min
Protocol: Under the present invention, using β-CD, HP-β-CD, SBE7-β-CD, SBE4-β-CD as controls, the hemolytic test results of 11 kinds of compounds are selected, shown in Table 13 and FIG. 9-FIG. 11.
10 ml of fresh rabbit blood were fetched to a clean conical flask, stirred with glass rod for 10 min to remove the fibers, then added with about 20 times of normal saline solution and placed in the centrifuge, 1500 rps/min, for about 3 min, then the supernatant was removed, washed repeated for several times until the supernatant solution becomes clear. The prepared red blood cells were prepared to 5% of suspension by normal saline solution. (Reference: State Drug Administration, Technical requirement of TCM injection study, Technical requirement of TCM new drug study, 1999, 11, 12)

mouse [1] = details: cited from earlier work
[2] = Solubilizing test of puerarin; assay type: physicochemical; details: 25 °C, pH 6.86, aqueous buffer, thermodynamic from solid
Excerpt: The standard curve was plotted by concentration C against A (μg/mL) to obtain A=66.608 C+0.0017 R2=0.9999.

Kunming mice = test: Effect on mouse's spontaneous activities; assay type: in vivo; details: positive control 2 mg/kg
Protocol: (Bibliography: 1. Xu, Shuyun Pharmacological Test Methodology, 2nd version, P.641, People Health Press, Beijing, 1991. 2. Medicine Secretary for the Ministry of Health, Guidelines on Preclinical Study of New Pharmaceuticals (weaten drugs), P. 42, July, 1993.) • 1. […] Effect on mouse's spontaneity times: (see Table 15).
Effect on the frequency of mice' spontaneous activities: healthy mice, and 50 mice whose frequency of activities was 220-320 within 5 min were selected and randomly divided into five groups, the establishment of dosages were the same as the above. The frequency of activity at o min were measured before drug administration, and then were conducted by intragastric administration, 30, 60, 120 and 180 min later, the frequency of activities within 5 min was measured and recorded respectively, then compared with that of the control group. The measuring time was the period between 9:00 am and 4:00 pm each day. A Six-light channel spontaneous activity instrument was used for one mouse, kept at 24-26° C. of room temperature of; and kept quiet; the test was carried out after the test boxes were covered with black cloth.

rat = details: cited from earlier work
physchem = details: phosphate buffer, 25 °C, pH 6.86, aqueous buffer, thermodynamic from solid
[3] = Inclusion constant with prazosin hydrochloride, UV spectrophotometry; assay type: binding; details: PBS pH 6.86, 250 nm
Excerpt: PBS of PH6.86 was used to prepare hydrochloride prazosin dilute solution, and this dilute solution was used to prepare HP4-SBE2-β-CD sample solution. […] A line by 1/ΔA against 1/[CD]0 was plotted, and the inclusion constant Ka of prazosin hydrochloride/HP4-SBE2-β-CD can be obtained according to the value of intercept/slope.

[4] = Inclusion constant with ibuprofen, UV spectrophotometry; assay type: binding; details: PBS pH 6.86, 265 nm
[5] = Inclusion constant with puerarin, UV spectrophotometry; assay type: binding; details: PBS pH 6.86, 250 nm
Excerpt: PBS of PH6.86 was used to prepare puerarin dilute solution, and this dilute solution was used to prepare HP4-SBE2-β-CD sample solution. […] A straight line by 1/ΔA against 1/[CD]0 was plotted, and the inclusion constant Ka of puerarin/HP4-SBE2-β-CD can be obtained according to the value of intercept/slope.

[6] = 10-100.0 mg/kg; cited from earlier work
mouse [7] = details: 40 mg/kg, 120 mg/kg and 400 mg/kg; cited from earlier work
mouse stomach intestine = details: 120 mg/kg and 400 mg/kg; cited from earlier work
dog = details: cited from earlier work

For `OC[C@H]1O[C@@H]2O[C@H]3[C@H](O)[C@@H](O)[C@@H](O[C@H]4[C@H](O)[C@@H](O)[C@@H](O[C@H]5[C@H](O)[C@@H](O)[C@@H](O[C@H]6[C@H](O)[C@@H](O)[C@@H](O[C@H]7[C@H](O)[C@@H](O)[C@@H](O[C@H]8[C@H](O)[C@@H](O)[C@@H](O[C@H]1[C@H](O)[C@H]2O)O[C@@H]8CO)O[C@@H]7CO)O[C@@H]6CO)O[C@@H]5CO)O[C@@H]4CO)O[C@@H]3CO` [β-CD, β-cyclodextrin], the “Concentration when the degree of hemolysis of 50 percent” value (red blood cells) is given as 1140 µg/mL, the concentration without hemolysis (red blood cells) is given as 280 µg/mL and the LD50 (mouse [1]; intraperitoneal injection) is given as 788 mg/kg.
In the case of PEG400, the LD50 (mouse [1]; intraperitoneal injection) is listed as 4200 mg/kg and the LD50 (mouse [1]; subcutaneous injection) is listed as 10 (ml).
In the case of `C[S+](C)[O-]` [DMSO], the LD50 (mouse [1]; Oral) is given as 16500 mg/kg, the LD50 (mouse [1]; intraperitoneal injection) is given as 3000 mg/kg and the LD50 (mouse [1]; intravenous injection) is given as 5750 mg/kg. The LD50 (mouse [1]; subcutaneous injection) was 14 mg/kg.
Molecule `O=c1c(-c2ccc(O)cc2)coc2c([C@@H]3O[C@H](CO)[C@@H](O)[C@H](O)[C@H]3O)c(O)ccc12` [puerarin] has a solubility at 12 h [2] of 5800 µg/mL (≈ 13.9 mM).
In the case of `CN(C)CCCN1c2ccccc2Sc2ccc(Cl)cc21` [chloropromazine], the “frequency of spontaneous activities” value (Kunming mice; 0 min) was 302 ± 75 times/5 min, the “frequency of spontaneous activities” value (Kunming mice; 30 min) was 57 ± 40 times/5 min and the “frequency of spontaneous activities” value (Kunming mice; 60 min) was 16 ± 20 times/5 min. The “frequency of spontaneous activities” value (Kunming mice; 120 min) was 22 ± 19 times/5 min and the “frequency of spontaneous activities” value (Kunming mice; 180 min) was 25 ± 28 times/5 min.
In the case of `OC[C@@H](O)[C@@H](O)[C@H](O)[C@H](O)CO` [Mannitol], the LD50 (mouse [1]; Oral) is listed as 22 mg/kg, the LD50 (mouse [1]; intraperitoneal injection) is listed as 14 mg/kg and the LD50 (mouse [1]; intravenous injection) is listed as 17 mg/kg. For the same molecule, the LD50 (rat; Oral) was 17 mg/kg.
For `CN(C)C=O` [DMF], the LD50 (mouse [1]; Oral) is given as 2800 mg/kg, the LD50 (mouse [1]; intraperitoneal injection) is given as 1400 mg/kg and the LD50 (mouse [1]; intravenous injection) is given as 2000 mg/kg. The LDLo (mouse [1]; subcutaneous injection) was 1000 mg/kg.
In the case of Sodium deoxycholate, the LD50 (mouse [1]; Oral) is given as 815 mg/kg, the LD50 (mouse [1]; intraperitoneal injection) is given as 1400 mg/kg and the LD50 (mouse [1]; subcutaneous injection) is given as 75 mg/kg.
With `COc1cc2nc(N3CCN(C(=O)c4ccco4)CC3)nc(N)c2cc1OC` [prazosin hydrochloride] the solubility at 12 h (physchem) was 0.0495 µg/mL.
For `CCOC(=O)C(C)O` (stereo not drawn) [ethyl lactate], the LD50 (mouse [1]; intravenous injection) is given as 0.6 (ml) and the LD50 (mouse [1]; subcutaneous injection) is given as 2.5 (ml).
For `CC(O)CCO` (stereo not drawn) [1,3-Butylene glycol], the LD50 (rat; Oral) is listed as 22.8 mg/kg and 23.31 mg/kg and the LD50 (rat; subcutaneous injection) is listed as 20.06 mg/kg and 16.51 mg/kg.
In the case of `CCC(C)(C)O` [amyl alcohol-tert], the LD50 (mouse [1]; subcutaneous injection) is given as 2100 mg/kg and the LD50 (rat; Oral) is given as 1000 mg/kg.
In the case of `O=C(OCc1ccccc1)c1ccccc1` [Benzyl benzoate], the LD50 (mouse [1]; Oral) is listed as 1400 mg/kg and the LD50 (mouse [1]; cutaneous absorption) is listed as 4000 mg/kg.
For hydroxypropyl-β-CD [HP-β-CD], the “inclusion constant Ka” value [3] was 597, the “inclusion constant Ka” value [4] was 221 and the “inclusion constant Ka” value [5] was 345. The “Concentration when the degree of hemolysis of 50 percent” value (red blood cells) was 12610 µg/mL, the concentration without hemolysis (red blood cells) was 8160 µg/mL and the “effect on respiratory amplitude, respiratory frequency, blood pressure and ECG” value [6] was “no obvious effect”. For the same molecule, the “effect on mouse fasting blood glucose” value (mouse [7]) was “no obvious effect on mouse fasting blood glucose” and the “impellent function of mouse stomach intestine” value (mouse stomach intestine) was “slight reduction”.
In the case of `CC(O)CO` (stereo not drawn) [Propylene glycol], the LD50 (dog; Oral) is listed as 22 mg/kg and the LD50 (dog; intravenous injection) is listed as 26 mg/kg.
In the case of `CC(=O)OCC(COC(C)=O)OC(C)=O` [Glyceryl triacetate], the LD50 (mouse [1]; subcutaneous injection) is given as 2670 mg/kg and 3250 mg/kg.
For `OCc1ccccc1` [Benzyl alcohol], the LD50 (mouse [1]; Oral) is listed as 1580 mg/kg and the LD50 (rat; Oral) is listed as 1230 mg/kg.
